Results published in patent US8946243B2, “Compounds and methods for the treatment of viral infection” (The United States of America, as represented by the …, priority 2008, dated 2015).
Where two headings read alike, the source gives them in different places.

Assays:
[1] = tested on: HIV-1 LAI.04; assay: Anti-HIV activity in MT4 cell cultures: p24 production; assay type: cell-based; details: for inhibition of HIV-1 (in words): MT-4 cell line, concentration of 5 μM
Description: (§1) Human T-lymphocyte MT-4 or CEM cells were obtained from the American Type Culture Collection (Manassas, Va.) and cultivated in RPMI 1640 medium supplemented with 10% fetal bovine serum 2 mM L-glutamine and 0.075 M NaHCO3.
(§2) HIV-1(IIIB) was provided by Dr. R. C. Gallo and Dr. M. Popovic (at that time at the NCI, National Institutes of Health, Bethesda). A closely related HIV-1 variant (LAI.04) was obtained from the NIH AIDS Reagent Program.
Briefly, CEM cells (4.5×10^5 cells per ml) were suspended in fresh culture medium and infected with HIV-1 at 100 CCID50 (cell culture infective dose-50) per ml of cell suspension. Then 100 μl of the infected cell suspension were transferred to microplate wells, mixed with 100 μl of the appropriate dilutions of the test compounds, and further incubated at 37° C. After 4-5 days, giant cell formation was recorded microscopically in the CEM cell cultures. […] MT4 cells (1×10^4 cells per ml) were suspended in fresh culture medium and infected with 10 uL of HIV-1LAI.04 viral stock at 260 CCID50 (cell culture infective dose-50) per ml of cell suspension. Then infected cell suspensions were transferred to microplate wells, mixed with 1 mL of the appropriate dilutions of the test compounds, and further incubated at 37° C. […]

[2] = molecular target: HIV-1 RT (Human immunodeficiency virus type 1 group M subtype B, UniProt P03366); assay: Inhibition of HIV-1 RT; assay type: biochemical
[3] = tested on: HIV-2(ROD); assay: Anti-HIV activity in CEM cell cultures: prevention of giant cell (syncytium) formation, HIV-2(ROD); assay type: cell-based; details: Human immunodeficiency virus 2, CCRF-CEM, read-out: EC50 HIV-2(ROD)
[4] = Cytostatic activity in CEM cell cultures; assay type: cell-based; details: human, CEM T-lymphocyte cells
Description: as §1

[5] = tested on: HIV-1(IIIB); assay: Anti-HIV activity in CEM cell cultures: prevention of giant cell (syncytium) formation, HIV-1(IIIB); assay type: cell-based; details: concentration preventing syncytium formation by 50%, 4-5 days
Description: as §1, §2
Briefly, CEM cells (4.5×10^5 cells per ml) were suspended in fresh culture medium and infected with HIV-1 at 100 CCID50 (cell culture infective dose-50) per ml of cell suspension. Then 100 μl of the infected cell suspension were transferred to microplate wells, mixed with 100 μl of the appropriate dilutions of the test compounds, and further incubated at 37° C. After 4-5 days, giant cell formation was recorded microscopically in the CEM cell cultures. […] MT4 cells (1×10^4 cells per ml) were suspended in fresh culture medium and infected with 10 uL of HIV-1LAI.04 viral stock at 260 CCID50 (cell culture infective dose-50) per ml of cell suspension. Then infected cell suspensions were transferred to microplate wells, mixed with 1 mL of the appropriate dilutions of the test compounds, and further incubated at 37° C. After 7 days, p24 production was measured in the MT4 cell cultures supernatant.

[6] = tested on: HIV-1 X4 LAI.04; assay: HIV-1 replication in ex vivo human tonsillar tissue culture: p24gag in culture medium; assay type: cell-based; details: for EC50 / EC90: Human immunodeficiency virus 1; for EC50 / EC90 / EC75: ex vivo human tonsillar tissue, X4 LAI.04, p24gag
Description: Tonsillar tissues from routine surgery were obtained from the Children's National Medical Center, Washington D.C. Tissues were dissected into 2-mm^3 blocks and placed onto collagen sponge gels at the air-liquid interface. Tissue blocks were cultured in RPMI 1640 medium containing 15% heat-inactivated fetal calf serum, nonessential amino acids (1 mM), sodium pyruvate (1 mM), amphotericin B (2.5 μg/mL) and gentamicin (50 μg/mL). The culture medium was changed every 3 days and prodrugs were replenished. Blocks of human lymphoid tonsillar tissues were inoculated ex vivo with X4LAI.04 and treated with increasing concentration of each prodrug (0,1; 0.5; 1; 5 and 10 μM). HIV-1 replication was monitored by measuring p24gag accumulated in culture media over 3 day periods. For each donor, HIV-1 replication in 9 treated blocks was compared with that in 9 untreated blocks from the same donor.

[7] = MT4 cell cultures, HIV-1 LAI.04, 50% suppression of p24 production, read-out: EC50
[8] = CEM cell cultures, 50% effective concentration
[9] = Human immunodeficiency virus 1, IIIB, CCRF-CEM, read-out: EC50 HIV-1(IIIB), CEM cell cultures
[10] = Human immunodeficiency virus 1, MT4

Row | Compound | CC50 [4] [µM] | EC50 [5, 9] [µM] | EC50 [3] [µM] | EC50 [1, 10] [µM] | EC50 [6] [µM] | EC90 [6] [µM] | EC75 [6] [µM] | other results
1 | Nc1nc2c(ncn2COCCOP(=O)(O)O)c(=O)[nH]1 [ACV monophosphate, reference compound] | – | – | – | – | – | – | – | EC50 [1, 7]: 100 µM; inhibition of HIV-1 (in words) [1]: inefficient
2 | Nc1nc2c(ncn2COCCOP(=O)(O)OP(=O)(O)OP(=O)(O)O)c(=O)[nH]1 [ACV triphosphate, reference compound] | – | – | – | – | – | – | – | EC50 [1, 7]: 50 µM; inhibition of HIV-1 RT (in words) [2]: potent inhibitor
3 | Nc1nc2c(ncn2COCCO)c(=O)[nH]1 [ACV, Acyclovir, reference compound] | > 250 | – | – | – | – | – | – | EC50 [3, 8]: > 250 µM; inhibition of HIV-1 (in words) [1]: inefficient; effect on replication of HIV-1 (in words) ([1]; MT-4 cells, at low concentrations): does not affect HIV-1 replication at all
4 | COC(=O)[C@H](C)NP(=O)(OCCOCn1cnc2c(=O)[nH]c(N)nc21)Oc1ccccc1 (stereo partly drawn) [Cf 1811, acyclovir-[1-phenyl-(methoxy-L-alaninyl)]phosphate] | 67 | 16 | 26 | 15 | < 0.1 | 0.5 | 0.1 | –
5 | C[C@H](NP(=O)(OCCOCn1cnc2c(=O)[nH]c(N)nc21)Oc1cccc2ccccc12)C(=O)OCc1ccccc1 (stereo partly drawn) [Cf 2574, acyclovir-[1-naphthyl(benzoxy-L-alaninyl)]phosphate] | 17 | 17.5 | 7.3 | 0.8 | < 0.1 | 0.9 | 0.62 | –
6 | CCCOC(=O)[C@H](C)NP(=O)(OCCOCn1cnc2c(=O)[nH]c(N)nc21)Oc1cccc2ccccc12 (stereo partly drawn) [Cf 2629, acyclovir-[1-naphthyl(n-propoxy-L-alaninyl)]phosphate] | 22 | 3.2 | 7.4 | 10 | < 0.1 | 1.5 | 0.4 | EC50 ([5]; read-out: EC50 HIV-1(IIIB), CEM cell cultures): 3.4 µM
7 | C[C@H](NP(=O)(OCCOCn1cnc2c(=O)[nH]c(N)nc21)Oc1ccccc1)C(=O)OCc1ccccc1 (stereo partly drawn) [Cf 2648, acyclovir-[1-phenyl-(benzoxy-L-alaninyl)]phosphate] | 33 | 3.2 | 8.8 | 8 | < 0.1 | 0.55 | <0.1 | –
8 | COC(=O)[C@H](C)NP(=O)(OCCOCn1cnc2c(=O)[nH]c(N)nc21)Oc1cccc2ccccc12 (stereo partly drawn) [Cf 2649, acyclovir-[1-naphthyl(methoxy-L-alaninyl)]phosphate] | 57 | 9.7 | 9.3 | 3 | < 0.1 | 0.1 | <0.1 | inhibition at 5 µM ([1]; Human immunodeficiency virus 1, MT4, read-out: inhibition of replication of HIV-1): 99%; dose-dependency of HIV suppression (FIG. 2, in words) ([1]; MT4 cells, LAI.04, day 3 post-infection, p24 ELISA): suppression of HIV replication by the drug in dose-dependent manner; suppression of HIV-1 replication, time course (FIG. 1, in words) ([6]; human tonsillar tissue, 27 blocks, LAI.04, drug replenished every three days, p24 ELISA): efficient suppression of HIV replication
9 | Nc1nc2c(ncn2COCCOP(=O)(N[C@@H](Cc2ccccc2)C(=O)OCc2ccccc2)Oc2ccccc2)c(=O)[nH]1 (stereo partly drawn) [Cf 2650, acyclovir-[1-phenyl-(benzoxy-L-phenylalaninyl)]phosphate] | 42 | 24 | 21 | 16 | < 0.1 | 3 | 1.5 | –
10 | Nc1nc(O)c2ncn(COC(CO)CO)c2n1 [GCV, Ganciclovir, reference compound] | > 250 | – | – | – | – | – | – | EC50 ([5]; Human immunodeficiency virus 1, IIIB, CCRF-CEM, CEM cell cultures, read-out: EC50 HIV-1(IIIB)): > 250 µM; EC50 [3, 8]: > 250 µM
